According to PMC3753236, “Glucocorticosteroids in Nano-Sterically Stabilized Liposomes Are Efficacious for Elimination of the Acute Symptoms of Experimental Cerebral Malaria” (PLoS ONE, 2013):

Columns and labels:
[1] = system: Plasmodium berghei ANKA (PbA); experiment: Early treatment of experimental cerebral malaria (ECM), ICR mice infected with PbA; details: 10 mg/kg/d on days 3, 5, 7, 9 p.i.
Procedure: (§1) Plasmodium berghei ANKA (PbA; PbA MRA-311, CDC, Atlanta, GA, USA) was maintained in vivo by serial transfer of parasitized erythrocytes (PE) from infected to naïve mice. Experiments were also performed using a second strain of PbA, similarly maintained, and designated PbAus in the text (courtesy of Prof. G. Grau, University of Sydney, Australia).
(§2) Parasitemia was monitored by thin blood smears prepared from tail blood. These were stained with a 25% Giemsa solution, examined under a light microscope, and parasitemia determined as the percent of infected red blood cells per 10,000 erythrocytes. Disease severity was determined according to scoring of neurological symptoms and changes in weight and temperature, as previously described […] Parasitemias above 20% and the absence of neurological symptoms indicated severe anemic malaria.
For early ECM treatment, injections were given on days 3, 5, 7, and 9 p.i; for late treatment, treatment was given every other day, starting on day 5 p.i. for a total of at least two injections. Infected, non-treated control mice were injected with 5% dextrose or empty nSSL. Clinical signs and parasitemias were monitored and disease severity scored as described […] Surviving mice were treated with 2×10 mg/kg/d artemisone by intraperitoneal injection in order to achieve cure; mice were monitored for four weeks post-artemisone treatment in order to allow detection of possible late recrudescence. […] At each time-point, at least 3 mice from each group were chosen at random, deeply anesthetized, and brains were removed following intracardial perfusion (using saline, if organs were destined for real-time (rt)PCR analysis, or saline/formalin, if organs were destined for histopathological analysis). Organs destined for rtPCR analysis were snap-frozen in liquid nitrogen and stored at −80°C until use. Organs destined for immunohistology were immediately immersed in cryoprotectant solution (see below).

[2] = system: inflammation-related genes (CCL5, CXCL9, CXCL10, ICAM-1, IFNγ, IL-4); experiment: Brain expression of inflammation-related genes by qPCR; type: in vivo, C57Bl/6 mice; details: day 9 p.i., treatment days 3, 5, 7, 9 p.i., relative to non-infected mice, normalized to HPRT
Procedure: For total RNA extraction, samples were homogenized in Tri-reagent (Sigma) and the homogenate separated into aqueous and organic phases by chloroform addition and centrifugation. RNA was precipitated from the aqueous phase by addition of isopropanol, washed with ethanol, and solubilized in UPW.
cDNA synthesis was performed using a High Capacity cDNA Reverse Transcription kit (Applied Biosystems, Warrington, UK). cDNA was amplified from 1 µg RNA from each sample with the addition of 2 µl Multiscribe™ reverse transcriptase (RT), 2 µl RNAse inhibitor, 4 µl random primers, 4 µl RT buffer, and 1.6 µl dNTP's according to the manufacturer's instructions for first-strand cDNA synthesis. UPW was added for a final sample volume of 20 µl. cDNA samples were stored at −20°C.
Real-time transcription-polymerase chain reaction (rtPCR) was carried out using Applied Biosystems' 9800 Fast Thermal Cycler. The reaction mix for rtPCR analysis consisted of 1 µl cDNA, 300 nM forward (f) and reverse (r) primers (Syntezza, Jerusalem, Israel), and 7.5 µl manufactured master mix buffer containing nucleotides, Taq polymerase, and SYBR Green (Applied Biosystems) in a total volume of 15 µl. Gene amplification included one stage of 10 min at 95°C followed by 40 cycles of a two-step loop: 20 s at 95°C, and 1 min at 60°C. The fold-change in gene expression was normalized to the endogenous gene hypoxanthine phosphoribosyltransferase (HPRT). […] Results were considered significant if the observed fold-change was at least ×2 relative to non-infected mice. Primer sequences (5′-3′) were as follows: CCL5: […] (f), […] (r); ICAM-1: […] (f); […] (r); IFN-γ: […] (f), […] (r); IL-4: […] (f), […] (r); CXCL9: […] (f), […] (r); CXCL10: […] (f), […] (f), […] (r).

[3] = Biodistribution of BMS administered as free BMS or nSSL-BMS; details: infected mice; for concentration at 1 h / concentration at 6 h / concentration at 24 h / concentration at 48 h: C57Bl/6 Ola-Hsd, mouse, iv, µg drug/g organ; for concentration at 1 h: 1 h post-injection; for concentration at 48 h: 48 h post-injection
Procedure: The total and intraliposomal (after treatment with Dowex 2X-800 anion exchanger, pH 5, which binds all free drug) concentrations of MPS or BMS and their hydrolysis products were quantified using HPLC [5]. Liposome size distribution, phospholipid concentration, drug to lipid ratio, and level of free drug (i.e. percent drug encapsulated) were determined (see Table 1) as previously described.
At 1 h, 6 h, 24 h, and 48 h post-injection, mice (n = 3 per group) were anesthetized and sacrificed for organ collection. Organs were pooled and homogenized in 5% dextrose, followed by spiking with hydrocortisone, which served as an internal standard for extraction and sample processing. The homogenates were extracted as described elsewhere. Quantification of BMS and its derivatives was performed by HPLC as described above.

[4] = system: Plasmodium berghei ANKA (PbAus); experiment: Late-stage treatment of ECM followed by artemisone, PbAus-infected C57Bl/6 mice
Procedure: as §1, §2
For early ECM treatment, injections were given on days 3, 5, 7, and 9 p.i; for late treatment, treatment was given every other day, starting on day 5 p.i. for a total of at least two injections. Infected, non-treated control mice were injected with 5% dextrose or empty nSSL. Clinical signs and parasitemias were monitored and disease severity scored as described […] At each time-point, at least 3 mice from each group were chosen at random, deeply anesthetized, and brains were removed following intracardial perfusion (using saline, if organs were destined for real-time (rt)PCR analysis, or saline/formalin, if organs were destined for histopathological analysis). Organs destined for rtPCR analysis were snap-frozen in liquid nitrogen and stored at −80°C until use. Organs destined for immunohistology were immediately immersed in cryoprotectant solution (see below).

[5] = brain, 20 mg/kg, BMS in brain, 20 mg/kg i.v. on day 6 p.i.
[6] = heart, 20 mg/kg, BMS in heart, 20 mg/kg i.v. on day 6 p.i.
[7] = liver, 20 mg/kg, BMS in liver, 20 mg/kg i.v. on day 6 p.i.
[8] = lungs, 20 mg/kg, BMS in lungs, 20 mg/kg i.v. on day 6 p.i.

For C[C@H]1C[C@H]2[C@@H]3CCC4=CC(=O)C=C[C@]4(C)[C@@]3(F)[C@@H](O)C[C@]2(C)[C@@]1(O)C(=O)COC(=O)CCC(=O)O [BMS, β-methasone hemisuccinate], the “ECM rate (incidence of CM)” value [1] was 67%, the “CCL5 relative expression ± SEM” value [2] was 45.7±7.6 and the “CXCL9 relative expression ± SEM” value [2] was 39.3±11.1. For the same compound, the “CXCL10 relative expression ± SEM” value [2] was 18.2±2.4, the “ICAM-1 relative expression ± SEM” value [2] was 3.3±0.7 and the “IFNγ relative expression ± SEM” value [2] was 105.1±37.7. For the same compound, the “IL-4 relative expression ± SEM” value [2] was 1.5±0.3, the concentration at 1 h [3, 5] was 400 ng/g and the concentration at 6 h ([3]; brain, 20 mg/kg, BMS in brain, 20 mg/kg i.v. on day 6 p.i., 6 h post-injection) was 100 ng/g. The concentration at 24 h ([3]; brain, 20 mg/kg, BMS in brain, 20 mg/kg i.v. on day 6 p.i., 24 h post-injection) was 100 ng/g, the concentration at 48 h [3, 5] was 100 ng/g and the concentration at 1 h [3, 6] was 2900 ng/g. For the same compound, the concentration at 6 h ([3]; heart, 20 mg/kg, BMS in heart, 20 mg/kg i.v. on day 6 p.i., 6 h post-injection) was 2400 ng/g, the concentration at 24 h ([3]; heart, 20 mg/kg, BMS in heart, 20 mg/kg i.v. on day 6 p.i., 24 h post-injection) was about 3000 ng/g and the concentration at 48 h [3, 6] was 3300 ng/g. The concentration at 1 h [3, 7] was 2400 ng/g, the concentration at 6 h ([3]; liver, 20 mg/kg, BMS in liver, 20 mg/kg i.v. on day 6 p.i., 6 h post-injection) was 3400 ng/g and the concentration at 24 h ([3]; liver, 20 mg/kg, BMS in liver, 20 mg/kg i.v. on day 6 p.i., 24 h post-injection) was 400 ng/g. The concentration at 48 h [3, 7] was 400 ng/g, the concentration at 1 h [3, 8] was 1600 ng/g and the concentration at 6 h ([3]; lungs, 20 mg/kg, BMS in lungs, 20 mg/kg i.v. on day 6 p.i., 6 h post-injection) was 2400 ng/g. For the same compound, the concentration at 24 h ([3]; lungs, 20 mg/kg, BMS in lungs, 20 mg/kg i.v. on day 6 p.i., 24 h post-injection) was 2000 ng/g, the concentration at 48 h [3, 8] was 2000 ng/g and the “BMS in lungs, µg drug/g organ” value ([3]; 20 mg/kg i.v. on day 6 p.i., 24 h post-injection, listed as Free BMS, 20 mg/kg) was 1.9 µg drug/g organ. For the same compound, the “Brain to liver BMS concentration ratio” value ([3]; 6 h post-injection) was 0.03, the “Mice that died of acute toxicity” value ([4]; 20 mg/kg on days 5, 7, 9 p.i., upon second or third injection) was 6/10 and the “Average clinical score on day 7 p.i.” value ([4]; 20 mg/kg, treatment started day 5 p.i.) was 4.2±2.2.
